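Interpolation was linear, between the two tested concentrations surrounding the appropriate level; five concentrations were tested over 48 hours in 96-well plates. GI50 = concentration required for 50% inhibition of growth.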 Calls of active or inactive are those of the source. Cut-off read from the data, not from the text of the source: active = GI50 up to about 1.1 µM and inactive = higher.
Experiments:
Experiment in all cases: inhibition of tumour cell growth, NCI panel, 48 h
[1] = test system: HCC 2998
[2] = test system: OVCAR-8
[3] = test system: SR
[4] = test system: K562
[5] = test system: HCT-116
[6] = test system: UO-31
[7] = test system: TK-10
[8] = test system: SW-620
[9] = test system: A549
[10] = test system: BT-549
[11] = test system: T47D
[12] = test system: MDA-MB-435
[13] = test system: UACC-62
[14] = test system: SF-539
[15] = test system: COLO 205
[16] = test system: ACHN
[17] = test system: SNB-75
[18] = test system: SK-MEL-28
[19] = test system: SK-OV-3
[20] = test system: OVCAR-3
[21] = test system: 786-0
[22] = test system: MDA-N
[23] = test system: MCF7
[24] = test system: LOX IMVI
[25] = test system: HT-29
[26] = test system: RXF 393
[27] = test system: CAKI-1
[28] = test system: U-251
[29] = test system: MDA-MB-231
[30] = test system: SF-295
[31] = test system: OVCAR-4
[32] = test system: NCI-H460
[33] = test system: MOLT-4
[34] = test system: NCI/ADR-RES
[35] = test system: SNB-19
[36] = test system: Hs-578T
[37] = test system: M14
[38] = test system: Malme-3M
[39] = test system: CCRF-CEM
[40] = test system: A498
[41] = test system: DU-145
[42] = test system: RPMI-8226
[43] = test system: HOP-92
[44] = test system: NCI-H226
[45] = test system: UACC-257
[46] = test system: PC-3
[47] = test system: HL-60
[48] = test system: IGROV-1
[49] = test system: SF-268
[50] = test system: HCT-15
[51] = test system: KM12
[52] = test system: SK-MEL-2
[53] = test system: HOP-62
[54] = test system: EKVX
[55] = test system: SN12C
[56] = test system: NCI-H522
[57] = test system: OVCAR-5
[58] = test system: SK-MEL-5
[59] = test system: NCI-H23

## NCCc1c[nH]c2ccc(OC(=O)C(=O)O)cc12
[1]
  GI50: > 100 µM (inactive)
[2]
  GI50: > 100 µM (inactive)
[3]
  GI50: > 100 µM (inactive)
[4]
  GI50: > 100 µM (inactive)
[5]
  GI50: > 100 µM (inactive)
[6]
  GI50: > 100 µM (inactive)
[7]
  GI50: > 100 µM (inactive)
[8]
  GI50: > 100 µM (inactive)
[9]
  GI50: > 100 µM (inactive)
[10]
  GI50: > 100 µM (inactive)
[11]
  GI50: > 100 µM (inactive)
[12]
  GI50: > 100 µM (inactive)
[13]
  GI50: > 100 µM (inactive)
[14]
  GI50: > 100 µM (inactive)
[15]
  GI50: > 100 µM (inactive)
[16]
  GI50: > 100 µM (inactive)
[17]
  GI50: > 100 µM (inactive)
[18]
  GI50: > 100 µM (inactive)
[19]
  GI50: > 100 µM (inactive)
[20]
  GI50: > 100 µM (inactive)
[21]
  GI50: > 100 µM (inactive)
[22]
  GI50: > 100 µM (inactive)
[23]
  GI50: > 100 µM (inactive)
[24]
  GI50: > 100 µM (inactive)
[25]
  GI50: > 100 µM (inactive)
[26]
  GI50: > 100 µM (inactive)
[27]
  GI50: > 100 µM (inactive)
[28]
  GI50: > 100 µM (inactive)
[29]
  GI50: > 100 µM (inactive)
[30]
  GI50: > 100 µM (inactive)
[31]
  GI50: > 100 µM (inactive)
[32]
  GI50: > 100 µM (inactive)
[33]
  GI50: > 100 µM (inactive)
[34]
  GI50: > 100 µM (inactive)
[35]
  GI50: > 100 µM (inactive)
[36]
  GI50: > 100 µM (inactive)
[37]
  GI50: > 100 µM (inactive)
[38]
  GI50: > 100 µM (inactive)
[39]
  GI50: > 100 µM (inactive)
[40]
  GI50: > 100 µM (inactive)
[41]
  GI50: > 100 µM (inactive)
[42]
  GI50: > 100 µM (inactive)
[43]
  GI50: > 100 µM (inactive)
[44]
  GI50: > 100 µM (inactive)
[45]
  GI50: > 100 µM (inactive)
[46]
  GI50: > 100 µM (inactive)
[47]
  GI50: 0.302 µM (active)
[48]
  GI50: > 100 µM (inactive)
[49]
  GI50: > 100 µM (inactive)
[50]
  GI50: > 100 µM
[51]
  GI50: > 100 µM (inactive)
[52]
  GI50: > 100 µM (inactive)
[53]
  GI50: > 100 µM (inactive)
[54]
  GI50: > 100 µM (inactive)
[55]
  GI50: > 100 µM (inactive)
[56]
  GI50: > 100 µM (inactive)
[57]
  GI50: > 100 µM (inactive)
[58]
  GI50: > 100 µM (inactive)
[59]
  GI50: > 100 µM (inactive)

## COc1cc(C2c3cc4c(cc3OC(N3CCCC3)C2C)OCO4)cc(OC)c1OC (configuration not stated)
[1]
  GI50: 1.34 µM (inactive)
[2]
  GI50: 0.832 µM (active)
[3]
  GI50: 0.32 µM (active)
[4]
  GI50: 0.361 µM (active)
[5]
  GI50: 0.481 µM (active)
[6]
  GI50: 1.91 µM (inactive)
[7]
  GI50: 0.938 µM (active)
[8]
  GI50: 0.366 µM (active)
[9]
  GI50: 0.989 µM (active)
[10]
  GI50: 0.515 µM (active)
[11]
  GI50: 63.1 µM (inactive)
[12]
  GI50: 0.177 µM (active)
[13]
  GI50: 0.509 µM (active)
[14]
  GI50: 0.246 µM (active)
[15]
  GI50: 0.433 µM (active)
[16]
  GI50: 1.47 µM (inactive)
[17]
  GI50: 0.443 µM (active)
[18]
  GI50: 5.43 µM (inactive)
[19]
  GI50: 0.628 µM (active)
[20]
  GI50: 0.221 µM (active)
[21]
  GI50: 0.729 µM (active)
[22]
  GI50: 0.167 µM (active)
[23]
  GI50: 0.296 µM (active)
[24]
  GI50: 0.766 µM (active)
[25]
  GI50: 0.395 µM (active)
[26]
  GI50: 0.286 µM (active)
[27]
  GI50: 0.664 µM (active)
[28]
  GI50: 0.644 µM (active)
[29]
  GI50: 0.697 µM (active)
[30]
  GI50: 0.303 µM (active)
[31]
  GI50: 2.31 µM (inactive)
[32]
  GI50: 0.767 µM (active)
[33]
  GI50: 1.08 µM (active)
[34]
  GI50: 0.316 µM (active)
[35]
  GI50: 1.21 µM (inactive)
[36]
  GI50: 0.445 µM (active)
[37]
  GI50: 0.34 µM (active)
[38]
  GI50: 0.578 µM (active)
[39]
  GI50: 0.502 µM (active)
[40]
  GI50: 0.326 µM (active)
[41]
  GI50: 0.571 µM (active)
[42]
  GI50: 1.08 µM (active)
[43]
  GI50: 0.973 µM (active)
[44]
  GI50: 0.433 µM (active)
[45]
  GI50: 1.07 µM (active)
[46]
  GI50: 0.524 µM (active)
[47]
  GI50: 0.355 µM (active)
[48]
  GI50: 0.813 µM (active)
[49]
  GI50: 2.34 µM (inactive)
[50]
  GI50: 0.526 µM
[51]
  GI50: 0.322 µM (active)
[52]
  GI50: 0.394 µM (active)
[53]
  GI50: 0.596 µM (active)
[54]
  GI50: 3.53 µM (inactive)
[55]
  GI50: 0.757 µM (active)
[56]
  GI50: 0.548 µM (active)
[57]
  GI50: 1.09 µM (active)
[58]
  GI50: 0.344 µM (active)
[59]
  GI50: 0.548 µM (active)

## O=C(O)CCC(=O)C(=O)O [ALPHA-KETOGLUTARIC ACID]
[1]
  GI50: > 100 µM (inactive)
[2]
  GI50: > 100 µM (inactive)
[3]
  GI50: > 100 µM (inactive)
[4]
  GI50: > 100 µM (inactive)
[5]
  GI50: > 100 µM (inactive)
[6]
  GI50: > 100 µM (inactive)
[7]
  GI50: > 100 µM (inactive)
[8]
  GI50: > 100 µM (inactive)
[9]
  GI50: > 100 µM (inactive)
[10]
  GI50: > 100 µM (inactive)
[11]
  GI50: > 100 µM (inactive)
[12]
  GI50: > 100 µM (inactive)
[13]
  GI50: > 100 µM (inactive)
[14]
  GI50: > 100 µM (inactive)
[15]
  GI50: > 100 µM (inactive)
[16]
  GI50: > 100 µM (inactive)
[17]
  GI50: > 100 µM (inactive)
[18]
  GI50: > 100 µM (inactive)
[19]
  GI50: > 100 µM (inactive)
[20]
  GI50: > 100 µM (inactive)
[21]
  GI50: > 100 µM (inactive)
[22]
  GI50: > 100 µM (inactive)
[23]
  GI50: > 100 µM (inactive)
[24]
  GI50: > 100 µM (inactive)
[25]
  GI50: > 100 µM (inactive)
[26]
  GI50: > 100 µM (inactive)
[27]
  GI50: > 100 µM (inactive)
[28]
  GI50: > 100 µM (inactive)
[29]
  GI50: > 100 µM (inactive)
[30]
  GI50: > 100 µM (inactive)
[31]
  GI50: > 100 µM (inactive)
[32]
  GI50: > 100 µM (inactive)
[33]
  GI50: > 100 µM (inactive)
[34]
  GI50: > 100 µM (inactive)
[35]
  GI50: > 100 µM (inactive)
[36]
  GI50: > 100 µM (inactive)
[37]
  GI50: > 100 µM (inactive)
[38]
  GI50: > 100 µM (inactive)
[39]
  GI50: > 100 µM (inactive)
[40]
  GI50: > 100 µM (inactive)
[41]
  GI50: > 100 µM (inactive)
[42]
  GI50: > 100 µM (inactive)
[43]
  GI50: > 100 µM (inactive)
[44]
  GI50: > 100 µM (inactive)
[45]
  GI50: > 100 µM (inactive)
[46]
  GI50: > 100 µM (inactive)
[47]
  GI50: > 100 µM (inactive)
[48]
  GI50: > 100 µM (inactive)
[49]
  GI50: > 100 µM (inactive)
[50]
  GI50: > 100 µM
[51]
  GI50: > 100 µM (inactive)
[52]
  GI50: > 100 µM (inactive)
[53]
  GI50: > 100 µM (inactive)
[54]
  GI50: > 100 µM (inactive)
[55]
  GI50: > 100 µM (inactive)
[56]
  GI50: > 100 µM (inactive)
[57]
  GI50: > 100 µM (inactive)
[58]
  GI50: > 100 µM (inactive)
[59]
  GI50: > 100 µM (inactive)
